What is called IC50 is the concentration that gives 50% inhibition.

The values that follow come from ChEMBL document CHEMBL4334526, “Synthesis of Peptoid-Based Class I-Selective Histone Deacetylase Inhibitors with Chemosensitizing Properties” (J Med Chem, 2019).

The target of experiment [1] is T1, Class 1 histone deacetylase (Homo sapiens, UniProt Q13547+O15379+Q92769+Q9BY41). Briefly: Inhibition of class 1 HDAC in human Cal27CisR cells assessed as potentiation of cisplatin-induced cytotoxicity by measuring cisplatin IC50 at […] preincubated for 48 hrs followed by cisplatin addition and measured after 72 hrs by MTT assay (reference value: 63.2 uM). The class given is cell-based. (Tetrazolium assays rely on reduction of a dye to a coloured formazan, in cell work by metabolically active cells.)

The target of experiment [2] is T1, Class 1 histone deacetylase. Briefly: Inhibition of class 1 HDAC in human Cal27CisR cells assessed as potentiation of cisplatin-induced apoptosis assessed as increase in caspase-3/7 activation at […] preincubated for 48 hrs followed by cisplatin addition and measured after 24 hrs in presence of pan caspase inhibitor QVD by CellEvent caspase 3/7 green detection reagent/Hoechst 33342 staining based imaging analysis. The class given is cell-based.

The target is the same in experiment [3]. Nature of the experiment: Inhibition of class 1 HDAC in human Cal27CisR cells assessed as potentiation of cisplatin-induced apoptosis assessed as increase in caspase-3/7 activation at […] preincubated for 48 hrs followed by cisplatin addition and measured after 24 hrs by CellEvent caspase 3/7 green detection reagent/Hoechst 33342 staining based imaging analysis. The class given is cell-based.

Experiment [4] can be described thus: Induction of apoptosis in human Cal27CisR cells assessed as accumulation at sub-G1 phase at […] after 48 hrs by propidium iodide staining based flow cytometry relative to control. The class given is functional.
Experiment [5] concerns the target T1, Class 1 histone deacetylase. Briefly: Inhibition of class 1 HDAC in human CAL27 cells assessed as potentiation of cisplatin-induced cytotoxicity by measuring combination index at 5 uM in presence of […] cisplatin by MTT assay based Chou-Talalay analysis. It counts as cell-based. Particulars: CAL-27.
The target is the same in experiment [6]. Nature of the experiment: Inhibition of class 1 HDAC in human Cal27CisR cells assessed as potentiation of cisplatin-induced apoptosis assessed as increase in caspase-3/7 activation at 5 uM preincubated for 48 hrs followed by cisplatin addition and measured after 24 hrs by CellEvent caspase 3/7 green detection reagent/Hoechst 33342 staining based imaging analysis. The class given is cell-based.

For experiment [7] the target is unchanged. Nature of the experiment: Inhibition of class 1 HDAC in human CAL27 cells assessed as potentiation of cisplatin-induced cytotoxicity by measuring combination index at 5 uM in presence of 0.1 uM cisplatin by MTT assay based Chou-Talalay analysis. The class given is cell-based. Particulars: CAL-27.
Experiment [8] shares this target. Briefly: Inhibition of class 1 HDAC in human CAL27 cells assessed as potentiation of cisplatin-induced cytotoxicity by measuring combination index at 5 uM in presence of 10 uM cisplatin by MTT assay based Chou-Talalay analysis. It counts as cell-based. Particulars: CAL-27.
Experiment [9] has the same target. Briefly: Inhibition of class 1 HDAC in human CAL27 cells assessed as increase in histone H3 acetylation at 5 uM measured after 24 hrs by immunoblot analysis. It counts as cell-based. The note with it: CAL-27. In general terms: A western blot detects proteins with antibodies after separation by electrophoresis.
Experiment [10] has the same target. Nature of the experiment: Inhibition of class 1 HDAC in human CAL27 cells assessed as potentiation of cisplatin-induced cytotoxicity by measuring combination index at 5 uM in presence of 1 uM cisplatin by MTT assay based Chou-Talalay analysis. It counts as cell-based. Particulars: CAL-27.
Experiment [11] has the same target. Briefly: Inhibition of class 1 HDAC in human CAL27 cells assessed as potentiation of cisplatin-induced apoptosis assessed as increase in caspase-3/7 activation at 5 uM preincubated for 48 hrs followed by cisplatin addition and measured after 24 hrs by CellEvent caspase 3/7 green detection reagent/Hoechst 33342 staining based imaging analysis. The class given is cell-based. Particulars: CAL-27.

The target is the same in experiment [12]. Briefly: Inhibition of class 1 HDAC in human CAL27 cells assessed as potentiation of cisplatin-induced cytotoxicity by measuring cisplatin IC50 at 5 uM preincubated for 48 hrs followed by cisplatin addition and measured after 72 hrs by MTT assay (reference value: 9.79 uM). The class given is cell-based. Particulars: cal-27.
For experiment [13] the target is unchanged. Nature of the experiment: Inhibition of class 1 HDAC in human Cal27CisR cells assessed as potentiation of cisplatin-induced cytotoxicity by measuring combination index at 5 uM in presence of 1 uM cisplatin by MTT assay based Chou-Talalay analysis. It counts as cell-based.
A short description of experiment [14]: Induction of apoptosis in human Cal27CisR cells assessed as caspase-3/7 activation at 0.5 uM measured after 48 hrs by CellEvent caspase 3/7 green detection reagent/Hoechst 33342 staining based imaging analysis relative to control. It counts as functional.
Experiment [15] concerns the target T1, Class 1 histone deacetylase.
Description: Inhibition of class 1 HDAC in human Cal27CisR cells assessed as potentiation of cisplatin-induced cytotoxicity by measuring combination index at 0.10 uM in presence of 3.2 uM cisplatin by MTT assay based Chou-Talalay analysis
The target is the same in experiment [16]. This is another data set of the same source.
Description: Inhibition of class 1 HDAC in human Cal27CisR cells assessed as potentiation of cisplatin-induced cytotoxicity by measuring combination index at 0.10 uM in presence of 100 uM cisplatin by MTT assay based Chou-Talalay analysis
Experiment [17] has the same target. This is another data set of the same source.
Description: Inhibition of class 1 HDAC in human Cal27CisR cells assessed as potentiation of cisplatin-induced cytotoxicity by measuring combination index at 0.25 uM in presence of 3.2 uM cisplatin by MTT assay based Chou-Talalay analysis
For experiment [18] the target is unchanged. The source holds these as a separate data set.
A short description of experiment [19]: Induction of apoptosis in human Cal27CisR cells assessed as accumulation at sub-G1 phase at 0.5 uM after 48 hrs by propidium iodide staining based flow cytometry relative to control. It counts as functional.
Experiment [20] relates to CAL-27. Briefly: Induction of apoptosis in human CAL27 cells assessed as accumulation at sub-G1 phase at 100 uM measured after 48 hrs by propidium iodide staining based flow cytometry relative to control. It counts as functional.
The target of experiment [21] is T1, Class 1 histone deacetylase. The note with it: CAL-27.
Description: Inhibition of class 1 HDAC in human CAL27 cells assessed as potentiation of cisplatin-induced cytotoxicity by measuring combination index at 0.1 uM in presence of 10 uM cisplatin by MTT assay based Chou-Talalay analysis
For experiment [22], the system named is CAL-27. Nature of the experiment: Induction of apoptosis in human CAL27 cells assessed as caspase-3/7 activation at 0.5 uM measured after 48 hrs by CellEvent caspase 3/7 green detection reagent/Hoechst 33342 staining based imaging analysis relative to control. The class given is functional.
The target of experiment [23] is T1, Class 1 histone deacetylase. This is another data set of the same source.
Description: Inhibition of class 1 HDAC in human Cal27CisR cells assessed as potentiation of cisplatin-induced cytotoxicity by measuring combination index at 0.10 uM in presence of 10 uM cisplatin by MTT assay based Chou-Talalay analysis
Experiment [24] shares this target. The source holds these as a separate data set.
Description: Inhibition of class 1 HDAC in human Cal27CisR cells assessed as potentiation of cisplatin-induced cytotoxicity by measuring combination index at 0.25 uM in presence of 100 uM cisplatin by MTT assay based Chou-Talalay analysis
The target is the same in experiment [25]. This is another data set of the same source.
Description: Inhibition of class 1 HDAC in human Cal27CisR cells assessed as potentiation of cisplatin-induced cytotoxicity by measuring combination index at 0.25 uM in presence of 1 uM cisplatin by MTT assay based Chou-Talalay analysis
Experiment [26] shares this target. Particulars: CAL-27. The source holds these as a separate data set.
Description: Inhibition of class 1 HDAC in human CAL27 cells assessed as potentiation of cisplatin-induced cytotoxicity by measuring combination index at 0.25 uM in presence of 1 uM cisplatin by MTT assay based Chou-Talalay analysis
Experiment [27] shares this target. It counts as cell-based. Particulars: cal-27.
For experiment [28] the target is unchanged. Particulars: CAL-27. The source holds these as a separate data set.
Description: Inhibition of class 1 HDAC in human CAL27 cells assessed as potentiation of cisplatin-induced cytotoxicity by measuring combination index at 0.1 uM in presence of 3.2 uM cisplatin by MTT assay based Chou-Talalay analysis
Experiment [29] has the same target. The note with it: CAL-27. This is another data set of the same source.
Description: Inhibition of class 1 HDAC in human CAL27 cells assessed as potentiation of cisplatin-induced cytotoxicity by measuring combination index at 0.25 uM in presence of 3.2 uM cisplatin by MTT assay based Chou-Talalay analysis

Each structure is given as a SMILES string. Activity calls are given as the source filed them. The rule behind the calls is not given here.

T1 sequence (O15379 whole entry, looked up): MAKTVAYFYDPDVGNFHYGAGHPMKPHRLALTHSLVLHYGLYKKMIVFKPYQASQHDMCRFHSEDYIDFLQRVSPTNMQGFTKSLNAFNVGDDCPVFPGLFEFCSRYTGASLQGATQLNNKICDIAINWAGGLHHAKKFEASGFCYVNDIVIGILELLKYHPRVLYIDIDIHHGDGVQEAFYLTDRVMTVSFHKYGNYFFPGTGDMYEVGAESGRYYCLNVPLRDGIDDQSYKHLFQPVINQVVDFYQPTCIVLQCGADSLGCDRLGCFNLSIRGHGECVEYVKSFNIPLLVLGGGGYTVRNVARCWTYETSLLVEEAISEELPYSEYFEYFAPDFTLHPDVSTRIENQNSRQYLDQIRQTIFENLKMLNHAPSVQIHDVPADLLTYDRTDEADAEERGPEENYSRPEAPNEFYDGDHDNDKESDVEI
T1 sequence (Q13547 whole entry, looked up): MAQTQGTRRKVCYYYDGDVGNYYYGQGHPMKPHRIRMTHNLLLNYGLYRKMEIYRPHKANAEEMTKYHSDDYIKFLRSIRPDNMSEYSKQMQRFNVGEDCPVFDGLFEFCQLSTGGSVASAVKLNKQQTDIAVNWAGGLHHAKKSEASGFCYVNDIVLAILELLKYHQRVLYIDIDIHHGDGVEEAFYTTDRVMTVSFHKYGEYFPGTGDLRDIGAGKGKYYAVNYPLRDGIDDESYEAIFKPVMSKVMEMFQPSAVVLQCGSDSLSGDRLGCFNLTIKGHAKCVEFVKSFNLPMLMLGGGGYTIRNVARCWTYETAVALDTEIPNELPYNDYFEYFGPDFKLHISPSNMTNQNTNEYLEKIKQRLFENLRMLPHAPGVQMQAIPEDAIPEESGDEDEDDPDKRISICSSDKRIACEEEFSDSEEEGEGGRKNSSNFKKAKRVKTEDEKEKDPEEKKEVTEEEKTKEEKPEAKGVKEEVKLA
T1 sequence (Q92769 whole entry, looked up): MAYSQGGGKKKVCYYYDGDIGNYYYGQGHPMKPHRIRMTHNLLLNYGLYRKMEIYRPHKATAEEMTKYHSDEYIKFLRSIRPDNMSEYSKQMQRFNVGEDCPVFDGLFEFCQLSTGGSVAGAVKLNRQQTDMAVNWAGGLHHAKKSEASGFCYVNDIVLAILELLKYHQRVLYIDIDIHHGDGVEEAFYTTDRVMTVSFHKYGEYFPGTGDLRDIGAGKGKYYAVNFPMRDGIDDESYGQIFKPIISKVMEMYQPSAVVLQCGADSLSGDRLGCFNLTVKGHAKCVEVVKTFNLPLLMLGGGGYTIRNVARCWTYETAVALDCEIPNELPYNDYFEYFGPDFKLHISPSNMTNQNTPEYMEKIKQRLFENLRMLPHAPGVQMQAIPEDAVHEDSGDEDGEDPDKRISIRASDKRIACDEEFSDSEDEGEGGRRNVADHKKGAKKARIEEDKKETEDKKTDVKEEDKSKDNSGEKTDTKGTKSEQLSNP
T1 sequence (Q9BY41 whole entry, looked up): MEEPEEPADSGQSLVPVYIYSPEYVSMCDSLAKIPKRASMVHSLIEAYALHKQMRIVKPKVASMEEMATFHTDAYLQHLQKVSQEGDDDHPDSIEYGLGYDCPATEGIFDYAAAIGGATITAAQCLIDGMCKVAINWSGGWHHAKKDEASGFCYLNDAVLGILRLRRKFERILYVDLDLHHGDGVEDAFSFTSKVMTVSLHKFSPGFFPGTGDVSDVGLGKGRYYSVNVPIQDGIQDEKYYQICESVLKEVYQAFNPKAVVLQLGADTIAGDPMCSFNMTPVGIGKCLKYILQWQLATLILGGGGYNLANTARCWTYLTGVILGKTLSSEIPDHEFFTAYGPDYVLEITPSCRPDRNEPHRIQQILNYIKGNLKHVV

For `Cc1cc(C)cc(C(=O)N(CC(=O)NCc2ccccc2)Cc2ccc(C(=O)Nc3cc(-c4ccccc4)ccc3N)cc2)c1`, the IC50 in experiment [1] came out at 12000 nM. In experiment [2], the inhibition result is “inactive”. For the same molecule, in experiment [3], the inhibition entry is “Active”. For the same molecule, the Activity in [4] was determined as 7.45%.

For the molecule `Cc1cc(C)cc(C(=O)N(CCCCCC(=O)Nc2cc(-c3ccccc3)ccc2N)CC(=O)NCc2ccccc2)c1`, the CI in [5] is 0.1; in [7] it was below 0.2; in experiment [8] it was 0.09; in experiment [10], 0.76; in experiment [13], below 0.2. In addition, the inhibition result in experiment [6], in experiment [9] and in experiment [11] was “Active” each time. Further, the IC50 in experiment [12] came out at 1860 nM.

With `CN(C)c1ccc(C(=O)N(CC(=O)NCc2ccccc2)Cc2ccc(C(=O)Nc3ccccc3N)cc2)cc1`, the Activity in experiment [14] stood at 8.16%; in [19], 6.15%; with CAL-27 [20], 31%; in the experiment with CAL-27 [22], 12%. Besides, the CI in [15] was below 0.2; in [16] it was 0.07; in experiment [17], 0.44; in [18], 0.04; in experiment [21], 0.33; in [23] it was below 0.2. Further, the CI in [24] was 0.03; in experiment [25], 0.76; in experiment [26], 0.11; in [28], 0.37; in experiment [29], 0.07. Also, in experiment [27], the half-maximal inhibitory concentration (IC50) came out at 1260 nM.
